Measured values taken from patent US20180184680A1, “LONG-LASTING COOLING FORMULATIONS” (WM. WRIGLEY JR. COMPANY, priority 2015, published 2018).

Experiments:
Subjects = test: ESA panel evaluation of compressed mints (cooling strength, flavor strength, bitterness/off-taste); type: in vivo, human; conditions: for upfront cooling intensity: first 3 minutes, 9-point scale, WS-5 500 ppm
Method: All samples were prepared in a pilot plant under good manufacture practice conditions. Samples made for consumer descriptive analysis passed a metal detector test. One sample of each mint formulation was further evaluated in both Expert Sensory Analysis (ESA) and Descriptive Analysis tests.
Compressed mint samples were evaluated for cooling strength, flavor strength and bitterness, or off-taste in a randomized sampling order by a 9-point scale: 0 being the lowest and 9 being the highest. Subjects were allowed to suck the compressed mint (without biting or chewing) until completely dissolved. The coolant attributes were measured at different time points up to 15 minutes.
The level of WS-12 was increased to levels from 250 to 1000 ppm (0.025%-0.1% w/w) and additional ESA evaluations were conducted.

descriptive panel (N=8) = test: Consumer-Descriptive Analysis panel study of compressed mints; type: in vivo, human
Method: All samples were prepared in a pilot plant under good manufacture practice conditions. Samples made for consumer descriptive analysis passed a metal detector test. One sample of each mint formulation was further evaluated in both Expert Sensory Analysis (ESA) and Descriptive Analysis tests. A Consumer-Descriptive Analysis panel study was conducted. Four mints containing various level of cooling blend were formulated at a pilot plant. During the test, each member of the descriptive panel (N=8) sucked one piece of mint until it completely dissolved. During the mint consumption, panelists evaluated various cooling attributes including oral cool and nasal cool at several specified time points. Flavor and sweetener intensity, bitterness, and off-taste were also evaluated. Panelists continued the evaluation even after mint consumption was complete, for a total of 20 minutes from the beginning of the test.

[1] = compressed mint, WS-12 1000 ppm, WS-5 and WS-12 250 ppm of each

## CCOC(=O)CNC(=O)C1CC(C)CCC1C(C)C (stereo not drawn) [WS-5, N-(Ethoxycarbonylmethyl)-3-p-menthanecarboxamide]
Subjects; [1]
  upfront cooling intensity: strong cooling intensity upfront
Descriptive panel (N=8); compressed mint, WS-5
  oral cooling sustained after consumption: up to 10 minutes
Descriptive panel (N=8); during the 15 minutes, vs control, WS-5 500 ppm, WS-5/WS-12 250/250 ppm
  oral cooling: higher oral cooling

## COc1ccc(NC(=O)[C@@H]2C[C@H](C)CC[C@H]2C(C)C)cc1 [WS-12, (1R,2S,5R)-N-(4-Methoxyphenyl)-5-methyl-2-(1-methylethyl)cyclohexanecarboxamide]
Subjects; compressed mint, WS-12 1000 ppm, measured up to 15 minutes
  cooling duration: > 15 min
Subjects; [1]
  upfront cooling intensity: very low upfront cooling
Subjects; compressed mint, compared to mint comprising WS-23 (1000 ppm), WS-12 1000 ppm, WS-5 and WS-12 250 ppm of each
  cooling after 6 min: significant more cooling
Subjects; compressed mints, low level of WS-12 (25-100 ppm)
  cooling intensity, flavor intensity or duration of cooling versus the control mints: No significant difference

## CNC(=O)C(C)(C(C)C)C(C)C [WS-23, N,2,3-Trimethyl-2-isopropylbutamide, reference compound]
Descriptive panel (N=8); after the first 4 minutes, WS-23 0.1%
  oral cooling: lost cooling strength and became similar to the control
Descriptive panel (N=8); first 4 minutes, WS-23 0.1%
  oral cooling: superior oral cooling
